# According to ChEMBL document CHEMBL2396612 (Bioorg Med Chem Lett, 2013):
# How the values were obtained:
# Homo sapiens = organism: Homo sapiens; assay: Selectivity index, ratio of IC50 for ACAT1 (unknown origin) to IC50 for ACAT2 (unknown origin)
# [1] = molecular target: T1, Sterol O-acyltransferase 1 (Homo sapiens, UniProt P35610); assay: Inhibition of ACAT1 (unknown origin)
# T1 sequence (P35610 whole entry): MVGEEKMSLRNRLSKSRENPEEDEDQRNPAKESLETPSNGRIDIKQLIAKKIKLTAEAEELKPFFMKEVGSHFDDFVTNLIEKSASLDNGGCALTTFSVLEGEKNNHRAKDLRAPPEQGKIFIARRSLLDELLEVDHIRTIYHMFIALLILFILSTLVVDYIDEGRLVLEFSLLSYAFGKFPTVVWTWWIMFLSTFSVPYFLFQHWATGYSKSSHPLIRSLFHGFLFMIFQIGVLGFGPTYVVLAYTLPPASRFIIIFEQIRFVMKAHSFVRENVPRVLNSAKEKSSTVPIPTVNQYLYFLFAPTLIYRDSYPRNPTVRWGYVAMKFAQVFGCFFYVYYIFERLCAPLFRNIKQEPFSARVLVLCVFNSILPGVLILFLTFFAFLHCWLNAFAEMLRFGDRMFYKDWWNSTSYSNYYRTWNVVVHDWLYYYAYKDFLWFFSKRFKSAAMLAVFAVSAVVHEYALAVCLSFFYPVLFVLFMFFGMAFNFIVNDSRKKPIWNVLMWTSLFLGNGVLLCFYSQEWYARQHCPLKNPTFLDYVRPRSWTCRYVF
# [2] = molecular target: T2, Sterol O-acyltransferase 2 (Homo sapiens, UniProt O75908); assay: Inhibition of ACAT2 (unknown origin)
# T2 sequence (O75908 whole entry): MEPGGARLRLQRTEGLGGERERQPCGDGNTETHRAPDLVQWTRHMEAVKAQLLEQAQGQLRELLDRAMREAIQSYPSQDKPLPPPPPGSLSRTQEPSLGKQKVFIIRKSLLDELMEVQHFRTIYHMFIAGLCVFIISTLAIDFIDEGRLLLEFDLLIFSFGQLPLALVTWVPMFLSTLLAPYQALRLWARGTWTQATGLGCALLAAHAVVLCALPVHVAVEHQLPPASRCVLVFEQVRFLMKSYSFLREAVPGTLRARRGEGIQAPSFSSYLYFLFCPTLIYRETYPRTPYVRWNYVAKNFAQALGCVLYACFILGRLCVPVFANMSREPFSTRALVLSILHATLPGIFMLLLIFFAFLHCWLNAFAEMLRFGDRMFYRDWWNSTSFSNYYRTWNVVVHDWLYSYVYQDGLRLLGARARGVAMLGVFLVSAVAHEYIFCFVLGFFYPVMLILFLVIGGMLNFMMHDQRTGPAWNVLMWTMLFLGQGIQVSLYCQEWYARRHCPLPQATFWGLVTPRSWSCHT
Compound,Ratio IC50 (Homo sapiens),IC50 [1] [nM],IC50 [2] [nM]
Cc1ccccc1[C@@H]1OC[C@@]2(C)[C@@H]3C[C@H](OC(=O)c4ccc(F)cc4)[C@@]4(C)Oc5cc(-c6cccnc6)oc(=O)c5[C@H](O)[C@@H]4[C@@]3(C)CC[C@@H]2O1,–,–,23
Cc1ccc([C@@H]2OC[C@@]3(C)[C@@H]4C[C@H](OC(=O)c5ccc(F)cc5)[C@@]5(C)Oc6cc(-c7cccnc7)oc(=O)c6[C@H](O)[C@@H]5[C@@]4(C)CC[C@@H]3O2)cc1,367,5540,15.1
C[C@@]12CO[C@@H](c3ccccc3)O[C@H]1CC[C@@]1(C)[C@H]2C[C@H](OC(=O)c2cccc(Br)c2)[C@@]2(C)Oc3cc(-c4cccnc4)oc(=O)c3[C@H](O)[C@H]12,143,4300,30
C[C@@]12CO[C@@H](c3ccccc3)O[C@H]1CC[C@@]1(C)[C@H]2C[C@H](OC(=O)c2ccccc2C#N)[C@@]2(C)Oc3cc(-c4cccnc4)oc(=O)c3[C@H](O)[C@H]12,–,–,320
CC(=O)OC[C@@]1(C)[C@@H]2C[C@H](OC(=O)c3ccc(C#N)cc3)[C@@]3(C)Oc4cc(-c5cccnc5)oc(=O)c4[C@H](O)[C@@H]3[C@@]2(C)CC[C@@H]1OC(C)=O,4620,–,–
C[C@@]12CO[C@@H](c3cccc4ccccc34)O[C@H]1CC[C@@]1(C)[C@H]2C[C@H](OC(=O)c2ccc(C#N)cc2)[C@@]2(C)Oc3cc(-c4cccnc4)oc(=O)c3[C@H](O)[C@H]12,> 2980,> 69100,23.2
C[C@@]12CO[C@@H](c3ccccc3)O[C@H]1CC[C@@]1(C)[C@H]2C[C@H](OC(=O)c2ccccc2F)[C@@]2(C)Oc3cc(-c4cccnc4)oc(=O)c3[C@H](O)[C@H]12,54,2700,50
COc1ccccc1[C@@H]1OC[C@@]2(C)[C@@H]3C[C@H](OC(=O)c4ccc(C#N)cc4)[C@@]4(C)Oc5cc(-c6cccnc6)oc(=O)c5[C@H](O)[C@@H]4[C@@]3(C)CC[C@@H]2O1,> 1930,> 71000,36.8
C[C@@]12CO[C@@H](c3ccccc3)O[C@H]1CC[C@@]1(C)[C@H]2C[C@H](OC(=O)c2cccc(C#N)c2)[C@@]2(C)Oc3cc(-c4cccnc4)oc(=O)c3[C@H](O)[C@H]12,73.3,2200,30
C[C@@]12CO[C@@H](c3ccccc3)O[C@H]1CC[C@@]1(C)[C@H]2C[C@H](OC(=O)c2ccccc2Cl)[C@@]2(C)Oc3cc(-c4cccnc4)oc(=O)c3[C@H](O)[C@H]12,16.2,1780,110
COc1ccc(C(=O)O[C@H]2C[C@H]3[C@]4(C)CO[C@@H](c5ccccc5)O[C@H]4CC[C@]3(C)[C@H]3[C@@H](O)c4c(cc(-c5cccnc5)oc4=O)O[C@]23C)cc1,493,6900,14
COc1ccccc1C(=O)O[C@H]1C[C@H]2[C@]3(C)CO[C@@H](c4ccccc4)O[C@H]3CC[C@]2(C)[C@H]2[C@@H](O)c3c(cc(-c4cccnc4)oc3=O)O[C@]12C,10.5,3400,320
Cc1cccc([C@@H]2OC[C@@]3(C)[C@@H]4C[C@H](OC(=O)c5ccc(F)cc5)[C@@]5(C)Oc6cc(-c7cccnc7)oc(=O)c6[C@H](O)[C@@H]5[C@@]4(C)CC[C@@H]3O2)c1,200,9510,47.6
C[C@@]12CO[C@@H](c3ccccc3)O[C@H]1CC[C@@]1(C)[C@H]2C[C@H](OC(=O)c2ccc([N+](=O)[O-])cc2)[C@@]2(C)Oc3cc(-c4cccnc4)oc(=O)c3[C@H](O)[C@H]12,232,13900,60
CCCCC(=O)O[C@H]1C[C@H]2[C@]3(C)CO[C@@H](c4ccccc4)O[C@H]3CC[C@]2(C)[C@H]2[C@@H](O)c3c(cc(-c4cccnc4)oc3=O)O[C@]12C,200,4000,20
C[C@@]12CO[C@@H](c3ccccc3)O[C@H]1CC[C@@]1(C)[C@H]2C[C@H](OC(=O)c2ccc(C=O)cc2)[C@@]2(C)Oc3cc(-c4cccnc4)oc(=O)c3[C@H](O)[C@H]12,183,5500,30
C[C@@]12CO[C@@H](c3ccccc3)O[C@H]1CC[C@@]1(C)[C@H]2C[C@H](OC(=O)c2cccc(Cl)c2)[C@@]2(C)Oc3cc(-c4cccnc4)oc(=O)c3[C@H](O)[C@H]12,142,2700,19
COc1cccc(C(=O)O[C@H]2C[C@H]3[C@]4(C)CO[C@@H](c5ccccc5)O[C@H]4CC[C@]3(C)[C@H]3[C@@H](O)c4c(cc(-c5cccnc5)oc4=O)O[C@]23C)c1,61.4,4300,70

# Continued, values first:
Ratio IC50 (Homo sapiens),IC50 [1] [nM],IC50 [2] [nM],Compound
886,6200,7,C[C@@]12CO[C@@H](c3ccccc3)O[C@H]1CC[C@@]1(C)[C@H]2C[C@H](OC(=O)c2ccc(F)cc2)[C@@]2(C)Oc3cc(-c4cccnc4)oc(=O)c3[C@H](O)[C@H]12
644,5800,9,C[C@@]12CO[C@@H](c3ccccc3)O[C@H]1CC[C@@]1(C)[C@H]2C[C@H](OC(=O)c2ccc(Cl)cc2)[C@@]2(C)Oc3cc(-c4cccnc4)oc(=O)c3[C@H](O)[C@H]12
690,6900,10,C[C@@]12CO[C@@H](c3ccccc3)O[C@H]1CC[C@@]1(C)[C@H]2C[C@H](OC(=O)c2ccc(Br)cc2)[C@@]2(C)Oc3cc(-c4cccnc4)oc(=O)c3[C@H](O)[C@H]12
231,3000,13,C[C@@]12CO[C@@H](c3ccccc3)O[C@H]1CC[C@@]1(C)[C@H]2C[C@H](OC(=O)c2cccc(F)c2)[C@@]2(C)Oc3cc(-c4cccnc4)oc(=O)c3[C@H](O)[C@H]12
–,–,6.8,C[C@@]12CO[C@@H](c3ccccc3F)O[C@H]1CC[C@@]1(C)[C@H]2C[C@H](OC(=O)c2ccc(C#N)cc2)[C@@]2(C)Oc3cc(-c4cccnc4)oc(=O)c3[C@H](O)[C@H]12
478,3730,7.8,Cc1cccc([C@@H]2OC[C@@]3(C)[C@@H]4C[C@H](OC(=O)c5ccc(C#N)cc5)[C@@]5(C)Oc6cc(-c7cccnc7)oc(=O)c6[C@H](O)[C@@H]5[C@@]4(C)CC[C@@H]3O2)c1
> 9920,> 71200,7.2,Cc1cccc(C)c1[C@@H]1OC[C@@]2(C)[C@@H]3C[C@H](OC(=O)c4ccc(C#N)cc4)[C@@]4(C)Oc5cc(-c6cccnc6)oc(=O)c5[C@H](O)[C@@H]4[C@@]3(C)CC[C@@H]2O1
> 6160,> 72800,11.8,Cc1ccccc1[C@@H]1OC[C@@]2(C)[C@@H]3C[C@H](OC(=O)c4ccc(C#N)cc4)[C@@]4(C)Oc5cc(-c6cccnc6)oc(=O)c5[C@H](O)[C@@H]4[C@@]3(C)CC[C@@H]2O1
1520,10000,6.6,Cc1ccc([C@@H]2OC[C@@]3(C)[C@@H]4C[C@H](OC(=O)c5ccc(C#N)cc5)[C@@]5(C)Oc6cc(-c7cccnc7)oc(=O)c6[C@H](O)[C@@H]5[C@@]4(C)CC[C@@H]3O2)c(C)c1
320,3200,10,CCCCC(=O)O[C@H]1C[C@H]2[C@]3(C)CO[C@@H](c4ccccc4C)O[C@H]3CC[C@]2(C)[C@H]2[C@@H](O)c3c(cc(-c4cccnc4)oc3=O)O[C@]12C
836,8110,9.7,Cc1ccc([C@@H]2OC[C@@]3(C)[C@@H]4C[C@H](OC(=O)c5ccc(C#N)cc5)[C@@]5(C)Oc6cc(-c7cccnc7)oc(=O)c6[C@H](O)[C@@H]5[C@@]4(C)CC[C@@H]3O2)cc1
467,2800,6,C[C@@]12CO[C@@H](c3ccccc3)O[C@H]1CC[C@@]1(C)[C@H]2C[C@H](OC(=O)c2ccc(C#N)cc2)[C@@]2(C)Oc3cc(-c4cccnc4)oc(=O)c3[C@H](O)[C@H]12
